biological target: recombinant 17β-HSD13 protein (Homo sapiens (Human), UniProt Q7Z5P4); assay: 17β-HSD13 biochemical assay (NAD+/NADH Glo chemiluminescence); conditions: 17β-HSD13 50 nM, NAD+ 10 mM, β-estradiol 20 μM, 2 hours room temperature
Experimental: 17β-HSD13 biochemical assays are generically described in patents WO 2022/020730, WO 2021/003295, and WO 2023/023310. More specifically, recombinant 17β-HSD13 protein was assayed in a buffer containing 200 mM Tris pH 7.5, 0.01% Triton X-100, and 0.02% BSA into a 384-well assay plate. Compounds were incubated with 17β-HSD13 (final 50 nM) and NAD+ (final 10 mM) at room temperature for 1 h prior to substrate addition. The assay reaction was then initiated by addition of β-estradiol (final 20 μM), and the reaction mixture was incubated for 2 hours at room temperature. Product formation was detected with chemiluminescence by adding equal volume of NAD+/NADH Glo reagent (Promega, #G9062) and read on a PHERAstar microplate reader (BMG LABTECH). IC50 values were determined with GraphPad Prism®, where log-transformed concentration values and the inhibition data were fitted to a four-parameter logistic equation. Y=Bottom+(Top−Bottom)/(1+10^((Log IC50−X)*HillSlope)). The original, % control, or % inhibition data are represented by Y along with their minimal (Bottom) and maximal (Top) values. The inhibitor concentration is represented by X, IC50 is the concentration at 50% maximal value, and Hill Slope is the slope factor.

recombinant 17β-HSD13 protein, sequence (Q7Z5P4 20-300): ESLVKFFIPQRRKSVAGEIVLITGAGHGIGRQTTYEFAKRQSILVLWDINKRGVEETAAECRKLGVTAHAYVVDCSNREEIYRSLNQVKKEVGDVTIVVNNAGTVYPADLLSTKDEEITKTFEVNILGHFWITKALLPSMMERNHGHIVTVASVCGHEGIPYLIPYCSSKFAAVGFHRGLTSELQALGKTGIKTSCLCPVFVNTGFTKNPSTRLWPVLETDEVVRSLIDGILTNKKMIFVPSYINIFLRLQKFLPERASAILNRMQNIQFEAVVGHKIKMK

Molecule	IC50 [nM]
O=C1N(CC(F)(F)F)C(=O)C2(CC2)N1Cc1nnc(-c2ccc(Cl)c(O)c2F)s1 [Compound I-24, 4-((5-(4-chloro-2-fluoro-3-hydroxyphenyl)-1,3,4-thiadiazol-2-yl)methyl)-6-(2,2,2-trifluoroethyl)-4,6-diazaspiro[2.4]heptane-5,7-dione]	71.4
O=C1N(CCc2ccccc2)C(=O)C2(CC2)N1Cc1nnc(-c2ccc(F)c(O)c2Cl)s1 [Compound I-37, 4-((5-(2-chloro-4-fluoro-3-hydroxyphenyl)-1,3,4-thiadiazol-2-yl)methyl)-6-phenethyl-4,6-diazaspiro[2.4]heptane-5,7-dione]	32.7
O=C1N(c2ccccc2)C(=O)C2(CC2)N1Cc1nnc(-c2ccc(F)c(O)c2F)s1 [Compound I-85, 4-((5-(2,4-difluoro-3-hydroxyphenyl)-1,3,4-thiadiazol-2-yl)methyl)-6-phenyl-4,6-diazaspiro[2.4]heptane-5,7-dione]	13.2
CCN1C(=O)N(Cc2nnc(-c3ccc(Cl)c(O)c3F)s2)C2(CC2)C1=O [Compound I-23, 4-[[5-(4-chloro-2-fluoro-3-hydroxy-phenyl)-1,3,4-thiadiazol-2-yl]methyl]-6-ethyl-4,6-diazaspiro[2.4]heptane-5,7-dione]	78.8
COc1ccc(CN2C(=O)N(Cc3nnc(-c4ccc(F)c(O)c4Cl)s3)C3(CC3)C2=O)c(F)c1 [Compound I-44, 4-((5-(2-chloro-4-fluoro-3-hydroxyphenyl)-1,3,4-thiadiazol-2-yl)methyl)-6-(2-fluoro-4-methoxybenzyl)-4,6-diazaspiro[2.4]heptane-5,7-dione]	7.38
CC(C)N1C(=O)N(Cc2nnc(-c3ccc(F)c(O)n3)s2)C2(CC2)C1=O [Compound I-76, 4-((5-(5-fluoro-6-hydroxypyridin-2-yl)-1,3,4-thiadiazol-2-yl)methyl)-6-isopropyl-4,6-diazaspiro[2.4]heptane-5,7-dione]	1390
O=C1N([C@@H](c2ccc(F)cc2F)C(F)(F)F)C(=O)C2(CC2)N1Cc1nnc(-c2ccc(F)c(O)c2F)s1 [Compound I-90B, (S)-4-((5-(2,4-difluoro-3-hydroxyphenyl)-1,3,4-thiadiazol-2-yl)methyl)-6-(1-(2,4-difluorophenyl)-2,2,2-trifluoroethyl)-4,6-diazaspiro[2.4]heptane-5,7-dione]	6.53
O=C1NC(=O)C2(CC2)N1Cc1nnc(-c2ccc(F)c(O)c2F)s1 [Compound I-27, 4-((5-(2,4-difluoro-3-hydroxyphenyl)-1,3,4-thiadiazol-2-yl)methyl)-4,6-diazaspiro[2.4]heptane-5,7-dione]	355
O=C1N(CC(F)(F)F)C(=O)C2(CC2)N1Cc1nnc(-c2ccc(F)c(O)n2)s1 [Compound I-73, 4-((5-(5-fluoro-6-hydroxypyridin-2-yl)-1,3,4-thiadiazol-2-yl)methyl)-6-(2,2,2-trifluoroethyl)-4,6-diazaspiro[2.4]heptane-5,7-dione]	1390
O=C1N(C(c2ccc(F)cc2F)C(F)(F)F)C(=O)C2(CC2)N1Cc1nnc(-c2ccc(F)c(O)c2Cl)s1 (single isomer, unassigned) [Compound I-54B]	8.43
O=C1N(Cc2ccccc2)C(=O)C2(CC2)N1Cc1nnc(-c2cc(C(F)(F)F)c(F)c(O)n2)s1 [Compound I-61, 6-benzyl-4-((5-(5-fluoro-6-hydroxy-4-(trifluoromethyl)pyridin-2-yl)-1,3,4-thiadiazol-2-yl)methyl)-4,6-diazaspiro[2.4]heptane-5,7-dione]	505
CCN1C(=O)N(Cc2nnc(-c3ccc(F)c(O)c3F)s2)C(C)(C)C1=O [Compound I-8, 1-((5-(2,4-difluoro-3-hydroxyphenyl)-1,3,4-thiadiazol-2-yl)methyl)-3-ethyl-5,5-dimethylimidazolidine-2,4-dione]	90.8
O=C1N(CC(F)(F)F)C(=O)C2(CC2)N1Cc1nnc(-c2cc(C(F)(F)F)c(F)c(O)n2)s1 [Compound I-60, 4-((5-(5-fluoro-6-hydroxy-4-(trifluoromethyl)pyridin-2-yl)-1,3,4-thiadiazol-2-yl)methyl)-6-(2,2,2-trifluoroethyl)-4,6-diazaspiro[2.4]heptane-5,7-dione]	2960
O=C1N(CC(F)(F)F)C(=O)C2(CC2)N1Cc1nnc(-c2nc(C(F)(F)F)c(F)c(O)c2F)s1 [Compound I-58, 4-((5-(3,5-difluoro-4-hydroxy-6-(trifluoromethyl)pyridin-2-yl)-1,3,4-thiadiazol-2-yl)methyl)-6-(2,2,2-trifluoroethyl)-4,6-diazaspiro[2.4]heptane-5,7-dione]	293
O=C1N(C(c2ccccc2)c2ccccc2)C(=O)C2(CC2)N1Cc1nnc(-c2ccc(F)c(O)c2F)s1 [Compound I-95, 6-benzhydryl-4-((5-(2,4-difluoro-3-hydroxyphenyl)-1,3,4-thiadiazol-2-yl)methyl)-4,6-diazaspiro[2.4]heptane-5,7-dione]	62
O=C1N(CC(F)(F)F)C(=O)C2(CC2)N1Cc1nnc(-c2ccc(Cl)c(O)c2Cl)s1 [Compound I-17, 4-((5-(2,4-dichloro-3-hydroxyphenyl)-1,3,4-thiadiazol-2-yl)methyl)-6-(2,2,2-trifluoroethyl)-4,6-diazaspiro[2.4]heptane-5,7-dione]	106
O=C1N(CC(F)(F)F)C(=O)C2(CC2)N1Cc1nnc(-c2cc(C(F)(F)F)c(F)c(O)c2F)s1 [Compound I-56, 4-((5-(2,4-difluoro-3-hydroxy-5-(trifluoromethyl)phenyl)-1,3,4-thiadiazol-2-yl)methyl)-6-(2,2,2-trifluoroethyl)-4,6-diazaspiro[2.4]heptane-5,7-dione]	12.5
(R)-4-((5-(2,4-difluoro-3- hydroxyphenyl)-1,3,4-thiadiazol-2- yl)methyl)-6-(1-hydroxypropan-2- yl)-4,6-diazaspiro[2.4]heptane-5,7- dione [Compound I-46]	66
O=C1N(Cc2ccccc2)C(=O)C2(CC2)N1Cc1nnc(-c2ccc(Cl)c(O)c2Cl)s1 [Compound I-36, 6-benzyl-4-((5-(2,4-dichloro-3-hydroxyphenyl)-1,3,4-thiadiazol-2-yl)methyl)-4,6-diazaspiro[2.4]heptane-5,7-dione]	38.5
O=C1N(Cc2nnc(-c3ccc(F)c(O)c3F)s2)C2(CC2)C(=O)N1C1(C(F)(F)F)CC1 [Compound I-87, 4-((5-(2,4-difluoro-3-hydroxyphenyl)-1,3,4-thiadiazol-2-yl)methyl)-6-(1-(trifluoromethyl)cyclopropyl)-4,6-diazaspiro[2.4]heptane-5,7-dione]	11.3
CC#CC(N1C(=O)N(Cc2nnc(-c3ccc(F)c(O)c3F)s2)C2(CC2)C1=O)C(F)(F)F (centres unmarked) [Compound I-94, 4-((5-(2,4-difluoro-3-hydroxyphenyl)-1,3,4-thiadiazol-2-yl)methyl)-6-(1,1,1-trifluoropent-3-yn-2-yl)-4,6-diazaspiro[2.4]heptane-5,7-dione]	6.77
O=C1N(CC(F)(F)F)C(=O)C2(CC2)N1Cc1nnc(-c2cc(C3CC3)c(F)c(O)c2F)s1 [Compound I-62, 4-((5-(5-cyclopropyl-2,4-difluoro-3-hydroxyphenyl)-1,3,4-thiadiazol-2-yl)methyl)-6-(2,2,2-trifluoroethyl)-4,6-diazaspiro[2.4]heptane-5,7-dione]	84.9
O=C1N(CC(F)(F)F)C(=O)C2(CC2)N1Cc1nnc(-c2cncc(O)c2Cl)s1 [Compound I-18, 4-((5-(4-chloro-5-hydroxypyridin-3-yl)-1,3,4-thiadiazol-2-yl)methyl)-6-(2,2,2-trifluoroethyl)-4,6-diazaspiro[2.4]heptane-5,7-dione]	193
CCN1C(=O)N(Cc2nnc(-c3ccc(F)c(O)c3F)s2)C2(CCC2)C1=O [Compound I-1, 5-((5-(2,4-difluoro-3-hydroxyphenyl)-1,3,4-thiadiazol-2-yl)methyl)-7-ethyl-5,7-diazaspiro[3.4]octane-6,8-dione]	56.7
CC[C@@H](C)N1C(=O)N(Cc2nnc(-c3ccc(F)c(O)n3)s2)C2(CC2)C1=O [Compound I-77, (R)-6-(sec-butyl)-4-((5-(5-fluoro-6-hydroxypyridin-2-yl)-1,3,4-thiadiazol-2-yl)methyl)-4,6-diazaspiro[2.4]heptane-5,7-dione]	1060
CCN1C(=O)N(Cc2nnc(-c3cncc(O)c3Cl)s2)C2(CC2)C1=O [Compound I-11, 4-((5-(4-chloro-5-hydroxypyridin-3-yl)-1,3,4-thiadiazol-2-yl)methyl)-6-ethyl-4,6-diazaspiro[2.4]heptane-5,7-dione]	245
CCN1C(=O)N(Cc2nnc(-c3cnc(F)c(O)c3)s2)C2(CC2)C1=O [Compound I-2, 6-ethyl-4-((5-(6-fluoro-5-hydroxypyridin-3-yl)-1,3,4-thiadiazol-2-yl)methyl)-4,6-diazaspiro[2.4]heptane-5,7-dione]	156
CC(C)(C)N1C(=O)N(Cc2nnc(-c3ccc(F)c(O)n3)s2)C2(CC2)C1=O [Compound I-81, 6-(tert-butyl)-4-((5-(5-fluoro-6-hydroxypyridin-2-yl)-1,3,4-thiadiazol-2-yl)methyl)-4,6-diazaspiro[2.4]heptane-5,7-dione]	602
CC(C)(C)N1C(=O)N(Cc2nnc(-c3ccc(F)c(O)c3F)s2)C2(CC2)C1=O [Compound I-84, 6-(tert-butyl)-4-((5-(2,4-difluoro-3-hydroxyphenyl)-1,3,4-thiadiazol-2-yl)methyl)-4,6-diazaspiro[2.4]heptane-5,7-dione]	4.07

Source: patent publication US20250026745A1 (Bluejay Therapeutics, Inc., priority 2023, published 2025)
